In patent US20070032529A1, “Pyrazole compounds and their use as antidiabetes agents” (Japan Tobacco Inc., priority 2005, published 2007):
Read-outs that look alike come from different tables or passages of the source. One block for each compound: values may come before it.

Molecular target: T1, recombinant human liver glycogen phosphorylase (Homo sapiens, UniProt P06737)
T1 construct: made in house; host or cells: Sf9 insect cells (crude homogenate, diluted, used as the enzyme solution)
T1 sequence (P06737 1-847): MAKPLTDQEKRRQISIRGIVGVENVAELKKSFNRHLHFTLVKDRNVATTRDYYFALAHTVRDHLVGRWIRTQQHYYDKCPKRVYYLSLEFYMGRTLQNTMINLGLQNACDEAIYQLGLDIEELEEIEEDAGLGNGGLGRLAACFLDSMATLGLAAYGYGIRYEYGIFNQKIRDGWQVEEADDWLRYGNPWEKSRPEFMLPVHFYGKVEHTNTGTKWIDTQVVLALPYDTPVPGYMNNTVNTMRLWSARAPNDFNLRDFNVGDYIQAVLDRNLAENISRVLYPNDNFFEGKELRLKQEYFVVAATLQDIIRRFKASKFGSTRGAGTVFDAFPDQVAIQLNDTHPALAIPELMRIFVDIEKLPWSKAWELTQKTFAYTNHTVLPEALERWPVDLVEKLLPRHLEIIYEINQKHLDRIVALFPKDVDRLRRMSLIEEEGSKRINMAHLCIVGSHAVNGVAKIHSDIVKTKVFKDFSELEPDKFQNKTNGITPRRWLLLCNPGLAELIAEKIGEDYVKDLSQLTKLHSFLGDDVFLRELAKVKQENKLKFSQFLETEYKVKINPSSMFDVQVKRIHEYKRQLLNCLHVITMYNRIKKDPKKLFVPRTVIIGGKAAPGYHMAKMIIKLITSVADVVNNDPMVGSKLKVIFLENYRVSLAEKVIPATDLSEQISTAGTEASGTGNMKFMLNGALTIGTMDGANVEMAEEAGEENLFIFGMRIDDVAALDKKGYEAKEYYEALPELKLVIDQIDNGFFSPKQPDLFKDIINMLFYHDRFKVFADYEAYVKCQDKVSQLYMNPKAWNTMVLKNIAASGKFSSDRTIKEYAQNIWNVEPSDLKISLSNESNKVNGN
Assay: Measuring liver glycogen phosphorylase activity (forward reaction system, NADPH absorbance at 340 nm)
Type: biochemical
Conditions: for inhibition at 0.1 µM: figure in brackets (100), read-out: IC50: % value given with (100)
Description: [Pharmacological Test] 1. Exemplary Test (1) Method for Measuring Liver Glycogen Phosphorylase Activity
The measurement of glycogen phosphorylase activity was carried out by a method using the forward reaction system.
The measurement of glycogen phosphorylase activity using the forward reaction system was carried out as follows. Glucose-1-phosphate prepared from glycogen by glycogen phosphorylase was converted into glucono-δ-lactone 6-phosphate through transphosphorylation and dehydrogenation using phosphoglucomutase and glucose-6-phosphate dehydrogenase (G6PDH). NADPH generated from NADP during the dehydrogenation by G6PDH was detected.
A homogenate of the Sf9 cells which expressed exogenously recombinant human liver glycogen phosphorylase was diluted with 100 mmol/LBES buffer solution (pH 6.8, containing 2 mmol/L EDTA) and the dilution was used as the enzyme solution of human liver glycogen phosphorylase. As the substrate, a phosphate buffer (containing 16 mmol/L KH2PO4, 24 mmol/L Na2HPO4) was used. A mixture of 8 U/mL phosphoglucomutase and 60 U/mL G6PDH was prepared in BES buffer solution. Buffer solution (containing 1.4 mmol/L NADP, 30 mmol/L MgCl2, 8 μmol/L glucose-1,6-diphosphate, 8 mg/mL glycogen, 40 mmol/LBES, 0.8 mmol/L EDTA) for reaction and a glucose solution (containing 75 mmol/L glucose, 100 mmol/LBES, 2 mmol/L EDTA) were prepared individually. The test compound was dissolved in 1% DMSO solution.
The enzymatic reaction was begun by adding 20 μL of the recombinant human liver glycogen phosphorylase solution and 20 μL of the mixture of phosphoglucomutase and G6PDH to the mixture of 20 μL of the glucose solution, 20 μL of the substrate, 100 μL of the buffer solution for reaction and 20 μL of the test compound solution. As control, 1% DMSO solution was added instead of the test compound. The mixture without the substrate was used as blank. The absorbance at 340 nm was measured immediately after the reaction started. The absorbance at 340 nm was measured again after reacting at room temperature for 75 minutes. The enzymatic activity is a value obtained by subtracting the blank variation in absorbance over 75 minutes from the variation in absorbance over 75 minutes.
The inhibition rate (%) of the test compound was calculated by the expression “(1-enzymatic activity of test compound/enzymatic activity of control)×100.”
A linear equation was determined from the two concentration points with the 50% inhibition rate therebetween, and the IC50 value was calculated from the concentration at the intersection of the line with the 50% inhibition rate.
“IC50” in the tables indicates the above-described enzyme inhibitory activity with respect to liver glycogen phosphorylase, and the activity to inhibit liver glycogen phosphorylase was represented as ++ when the IC50 value (nmol/L) was less than 100 nmol/L, as + when the IC50 value was between 100 nmol/L and 300 nmol/L. When IC50 is 300 nmol/L or more, an inhibition rate (%) at a certain concentration of the compound (I) of the present invention is shown in Tables. For example, when the inhibition rate is 20% at a concentration of 300 nmol, the rate is described as 20% (300).

[1] = enzyme inhibitory activity with respect to liver glycogen phosphorylase, class symbols
[2] = compound concentration 300 nmol (in parentheses), read-out: inhibition rate (%) at a certain concentration
[3] = human liver glycogen phosphorylase, class symbol

IC50 [1]: < 0.1 µM
SMILES: COc1ccc(CNC(=O)c2cc(NC(=O)c3cc(F)c(F)cc3Cl)[nH]n2)c(OC)c1 [Example 1-14]

inhibition rate (%) at a certain concentration (compound concentration 100 nmol (in parentheses)): 15.2% (100)
SMILES: O=C(Nc1cccc2cnccc12)c1cc(NC(=O)c2cc(F)c(F)cc2Cl)[nH]n1 [Example 5-38]

inhibition at 1 µM (compound concentration 1000 nmol (in parentheses), read-out: inhibition rate (%) at a certain concentration): 43.8%
SMILES: O=C(Nc1cc(C(=O)N(CCO)c2ccccc2)n[nH]1)c1cc(F)c(F)cc1Cl [Example 1-77]

inhibition at 0.3 µM [2]: 8.5%
SMILES: Cc1ncccc1C(=O)Nc1cc(C(=O)NCc2ccccc2)n[nH]1 [Example 4-42]

inhibition at 0.3 µM [2]: 24.2%
SMILES: O=C(NCc1ccccc1)c1cc(NC(=O)c2c(F)ccc(Cl)c2F)[nH]n1 [Example 4-21]

IC50 [1]: < 0.1 µM
SMILES: CC(=O)Nc1cccc(CNC(=O)c2cc(NC(=O)c3cc(F)c(F)cc3Cl)[nH]n2)c1 [Example 2-17]

inhibition at 0.3 µM (figure in brackets (300), read-out: IC50 column: % value printed with (300)): 8.5%
SMILES: O=C(NCc1cccnc1)c1cc(NC(=O)c2cc(F)c(Cl)nc2Cl)[nH]n1 [Example 7-5]

IC50 [1]: 0.1 to 0.3 µM
SMILES: O=C(NCc1ccccc1)c1cc(NC(=O)c2ccc(Cl)cc2Cl)[nH]n1 [Example 4-7]

IC50 [1]: 0.1 to 0.3 µM
SMILES: CCCCN(C(=O)c1cc(NC(=O)c2cc(F)c(F)cc2Cl)[nH]n1)C1CCSCC1 [Example 1-105]

inhibition at 0.1 µM: 20.1%
SMILES: COC(=S)ON=C(N)c1ccc(N(C)C(=O)c2cc(NC(=O)c3cc(F)c(F)cc3Cl)[nH]n2)cc1 [Example 6-14]

inhibition at 0.1 µM: 12.3%
SMILES: O=C(NC1CCc2ccccc21)c1cc(NC(=O)c2cc(F)c(F)cc2Cl)[nH]n1 (centres unmarked) [Example 6-41]

inhibition at 0.3 µM [2]: 13.4%
SMILES: CCN(CCN(C)C)C(=O)c1cc(NC(=O)c2cc(F)c(F)cc2Cl)[nH]n1 [Example 3-43]

IC50 [1]: < 0.1 µM
SMILES: CC(C)c1ccc(CNC(=O)c2cc(NC(=O)c3cc(F)c(F)cc3Cl)[nH]n2)cc1 [Example 1-35]

inhibition at 0.3 µM [2]: 38.9%
SMILES: CCCCN(C(=O)c1cc(NC(=O)c2cc(F)c(F)cc2Cl)[nH]n1)C1CCS(=O)(=O)CC1 [Example 1-114]

IC50 [1]: < 0.1 µM
SMILES: CCCCN(Cc1ccccc1)C(=O)c1cc(NC(=O)c2cc(F)c(F)cc2Cl)[nH]n1 [Example 1-85]

IC50 [1]: < 0.1 µM
SMILES: O=C(NCc1cccnc1)c1cc(NC(=O)c2cc(F)c(F)cc2Cl)[nH]n1 [Example 1-1, 5-(2-chloro-4,5-difluoro-benzoylamino)-1H-pyrazole-3-carboxylic acid (pyridin-3-ylmethyl)-amide]

inhibition at 0.1 µM: 6.8%
SMILES: CCOC(=O)c1csc(N(CC)C(=O)c2cc(NC(=O)c3cc(F)c(F)cc3Cl)[nH]n2)n1 [Example 6-18]

inhibition at 0.1 µM: 1.9%
SMILES: CC(=O)Nc1cc(F)c(F)cc1C(=O)Nc1cc(C(=O)NCc2cccnc2)n[nH]1 [Example 7-13]

inhibition at 0.1 µM: 15.5%
SMILES: NC(=O)CNC(=O)c1cc(NC(=O)c2cc(F)c(F)cc2Cl)[nH]n1 [Example 6-1]

IC50 [1]: 0.1 to 0.3 µM
SMILES: CCCCN(C(=O)c1cc(NC(=O)c2cc(F)c(F)cc2Cl)[nH]n1)C1CCN(S(C)(=O)=O)CC1 [Example 1-111]

IC50 [1]: < 0.1 µM
SMILES: O=C(NCc1cccc(C(F)(F)F)c1)c1cc(NC(=O)c2cc(F)c(F)cc2Cl)[nH]n1 [Example 1-28]

IC50 [1]: < 0.1 µM
SMILES: CCCCN(C(=O)c1cc(NC(=O)c2cc(F)c(F)cc2Cl)[nH]n1)C1CCCCC1 [Example 1-89]

IC50 [1]: 0.1 to 0.3 µM
SMILES: CC(C)CN(C(=O)c1cc(NC(=O)c2cc(F)c(F)cc2Cl)[nH]n1)c1ccccc1 [Example 4-24]

inhibition at 0.3 µM [2]: 9.7%
SMILES: Cc1ccc(C)c(C(=O)Nc2cc(C(=O)NCc3ccccc3)n[nH]2)c1 [Example 4-35]

IC50 [3]: < 0.1 µM
SMILES: CN(C(=O)c1cc(NC(=O)c2cc(F)c(F)cc2Cl)[nH]n1)c1ccc(-c2noc(=S)[nH]2)cc1 [Example 6-15]

inhibition at 0.3 µM [2]: 32.3%
SMILES: CCCCN(C(=O)c1cc(NC(=O)c2cc(F)c(F)cc2Cl)[nH]n1)C1CCC(C(=O)OC(C)(C)C)CC1 (centres unmarked) [Example 1-104]

inhibition at 0.3 µM [2]: 10.6%
SMILES: COc1ccc(C(=O)Nc2cc(C(=O)NCc3ccccc3)n[nH]2)c(C)c1 [Example 4-14]

IC50 [1]: < 0.1 µM
SMILES: Cc1nn(C)c(C)c1CNC(=O)c1cc(NC(=O)c2cc(F)c(F)cc2Cl)[nH]n1 [Example 1-55]

IC50 [3]: < 0.1 µM
SMILES: CCN(C=Nc1cccc(CNC(=O)c2cc(NC(=O)c3cc(F)c(F)cc3Cl)[nH]n2)c1)CC [Example 6-28]
